System: PD-1 on T cells
Assay: PD-1 expression on donor Th9 and endogenous CD8+/CD4+ T cells from spleens (S4J-L)
Type: in vivo, mouse
Conditions: for Expression of PD-1 of transferred CD45.1⁺ OT-II Th9 cells in spleen: Supplemental Figure 4J; for Expression of PD-1 of endogenous CD8⁺ T cells in spleen: Supplemental Figure 4K; for Expression of PD-1 of endogenous CD4⁺ T cells in spleen: Supplemental Figure 4L
Procedure: C57BL/6 mice were subcutaneously injected with 5 × 10^5 B16-OVA melanoma cells. Five days after tumor implantation, mice received an intravenous infusion of 2 × 10^6 in vitro–differentiated Th9 cells (cultured for 5 days), which were derived from OT-II CD45.1 donor mice, accompanied by 4 × 10^5 OVA peptide–pulsed DCs via the tail vein. To enhance T cell engraftment and facilitate lymphodepletion, a single intraperitoneal injection of cyclophosphamide (200 mg/kg, Sigma, catalog C0768) was administered 1 day prior to T cell transfer. Mice were euthanized at designated time points for the collection and analysis of spleens, tumor-draining lymph nodes, and tumor tissues.
Details regarding staining panels (human and mouse), reagents (including clones and catalog numbers), acquisition settings, compensation/controls, and analysis procedures are provided in Supplemental Methods.
CD45.1+ T Cells in Tumors
CtrlEpA Ctrl EpA GzmB Ctrl EpA
CtrlEpA CtrlEpA GzmB Ctrl EpA
J CD45.1+ T Cells in Spleens K CD8+ T Cells in Spleens L CD4+ T Cells in Spleens […]
PD-1 0 CtrlEpA PD-1 0 CtrlEpA PD-1 0 CtrlEpA […]
cells and endogenous T cells.
(A–C) Mean fluorescence intensity (MFI) of IFN-γ (A) and TNF-α (B), and representative flow-cytometric plots with quantification of Granzyme B⁺ Perforin⁺ cells (C) among adoptively transferred CD45.1⁺ Th9 cells in tumors. (D–F) MFI of IFN-γ (D) and TNF-α (E), and representative plots with quantification of Granzyme B⁺ Perforin⁺ cells (F) among tumor-infiltrating CD8⁺ T cells. (G–I) MFI of IFN-γ (G) and TNF-α (H), and representative plots with quantification of Granzyme B⁺ Perforin⁺ cells (I) among tumor-infiltrating CD4⁺ T cells. (J–L) PD-1 expression in adoptively transferred CD45.1⁺ Th9 cells (J), endogenous CD8⁺ T cells (K), and endogenous CD4⁺ T cells (L) from spleens of tumor-bearing mice. Data in (A–L) are shown as mean ± SEM from n = 4 mice per group. Statistical analysis was performed using two-tailed unpaired Student’s t-test (A–L). ns, not significant. *p < 0.05, **p […]
(also on this page, place not known: IFN -γ MFIofTNF-α CtrlEpACtrlEpA MFIofIFN-γ 1500MFIofTNF-α MFIofIFN-γ 800MFIofTNF-α CtrlEpA0 CtrlEpA0 CtrlEpA0 MFI of (×103Ď CtrlEpA0 MFI of PD-1 (×103) MFI of PD-1 (×103) CtrlEpAPD-1 HG FE GzmB+ PRF1+ of CD45.1+ cells (%) GzmB+ PRF1+ of CD8+ cells (%) GzmB+ PRF1+ of CD4+ cells (%) PRF1 PRF1 PRF1 0.3887.5 MFIofIFN-γ) […]

## anteiso-C15 Leu7 surfactin [EpA]
Donor Th9 and endogenous T cells, result in words
  PD-1 expression: comparable between groups
Replicate 1
  Expression of PD-1 of transferred CD45.1⁺ OT-II Th9 cells in spleen: 5868
  Expression of PD-1 of endogenous CD8⁺ T cells in spleen: 1931
  Expression of PD-1 of endogenous CD4⁺ T cells in spleen: 6299
Replicate 2
  Expression of PD-1 of transferred CD45.1⁺ OT-II Th9 cells in spleen: 7923
  Expression of PD-1 of endogenous CD8⁺ T cells in spleen: 1939
  Expression of PD-1 of endogenous CD4⁺ T cells in spleen: 5672
Replicate 3
  Expression of PD-1 of transferred CD45.1⁺ OT-II Th9 cells in spleen: 10955
  Expression of PD-1 of endogenous CD8⁺ T cells in spleen: 2374
  Expression of PD-1 of endogenous CD4⁺ T cells in spleen: 6004
Replicate 4
  Expression of PD-1 of transferred CD45.1⁺ OT-II Th9 cells in spleen: 4100
  Expression of PD-1 of endogenous CD8⁺ T cells in spleen: 1655
  Expression of PD-1 of endogenous CD4⁺ T cells in spleen: 4982
